Common to all, as to experiment: growth of human tumour cells (NCI), 48 h
For assay [1], the system named is SF-539 CNS.
Assay [2] concerns UO-31 renal.
The test system of assay [3] is HOP-62 NSCLC.
The test system of assay [4] is UACC-62 melanoma.
For assay [5], the system named is HOP-92 NSCLC.
Assay [6] relates to EKVX NSCLC.
The test system of assay [7] is SW-620 colon.
In assay [8] the test system is SF-268 CNS.
In assay [9] the test system is LOX IMVI melanoma.
Assay [10] deals with NCI-H460 lung.

Structures are written as SMILES. Several values for one entry are separate records, joined by “and”; a condition that tells them apart may be missing. Equal entries are not always repeated.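 Each compound was tested at five concentrations against cells in 96-well plates for 48 hours. The concentration for 50% growth inhibition is given as GI50. TGI marks complete inhibition of growth.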 Some results are limits rather than exact numbers.

`CC[C@@]1(O)C(=O)OCc2c1cc1n(c2=O)Cc2cc3c(N)cccc3nc2-1`: the GI50 in assay [1] was 0.00511 µM; in assay [2], 0.00841 µM; in assay [3], 0.00637 µM; in assay [4], 0.00361 µM; in [8], 0.00728 µM; in [9] it was 0.00462 µM. In assay [10], the GI50 was 0.00439 µM. For the same molecule, the TGI in [1] was 0.0184 µM; in assay [2], 0.127 µM; in [3], 0.0489 µM; in [4], 0.033 µM and 0.0638 µM; in [5], 1.99 µM; in assay [6], 7.96 µM. Further, the TGI was determined as 16.3 µM in assay [7], 3.06 µM in [8], 0.255 µM in [9] and 0.462 µM in assay [10].

With `Cc1cc(NC(=O)NC(=O)c2ccccc2N(C)C)ccc1Oc1ncc(Br)cn1`, the GI50 in assay [1] is 0.208 µM; in assay [2], 0.584 µM; in assay [5], 5.5 µM; in assay [9], 0.582 µM; in [10], 0.343 µM. Besides, the TGI in [1] is 0.548 µM and 1.03 µM; in assay [2], above 63.1 µM; in assay [3], 57.9 µM; in assay [4], above 100 µM; in assay [5], 46.2 µM; in assay [6], above 68.1 µM. Moreover, the TGI in assay [7] was above 71.1 µM; in assay [8], above 68.1 µM; in assay [9], above 63.1 µM; in assay [10] it was 55.5 µM.

In the case of `Cc1cc(=O)oc2cc(OCCn3c(C)nn(-c4ccc(Cl)cc4)c3=O)ccc12`, the GI50 is 4.06 µM in assay [1]; 12.7 µM in assay [2]; 3.05 µM in assay [3]; 1.99 µM in assay [4]; 16.1 µM in assay [5]; above 100 µM in [6]. Moreover, the GI50 is 2.2 µM in assay [7], 13.6 µM in assay [8], 4.83 µM in [9] and 2.8 µM in assay [10]. In addition, the TGI in [1] is 47.3 µM; in assay [2], above 100 µM; in [3], 32.9 µM; in assay [4] it was above 100 µM; in [5] it was above 100 µM; in assay [6], above 100 µM. Moreover, the TGI in assay [7], in [8], in [9] and in [10] was above 100 µM in each case.

Turning to `CC(=O)Oc1ccc(C2(c3ccc(OC(C)=O)cc3)C(=O)Nc3ccccc32)cc1`, the GI50 was 26.3 µM and 50.2 µM in [1]; 24 µM and 27.5 µM in [2]; 34.7 µM and 35.1 µM in assay [3]; 34.8 µM and 43.5 µM in [4]; 11.8 µM and 16.2 µM in assay [5]; 8.49 µM and 22.4 µM in assay [6]. For the same molecule, the GI50 in assay [7] was 36.7 µM and 31.5 µM; in [8] it was 38.5 µM and 32.8 µM; in [9] it was 16.8 µM and 13.8 µM; in [10] it was 36.6 µM and 46.3 µM. Moreover, the TGI in assay [1] was above 100 µM; in assay [2] it was above 100 µM; in assay [3], above 100 µM; in assay [4] it was above 100 µM; in [5], above 79.6 µM; in assay [6] it was above 100 µM. Moreover, the TGI in assay [7], in assay [8], in [9] and in [10] was above 100 µM each time.

With `CCC(=O)c1cc([N+](=O)[O-])c(Br)s1`, the GI50 was 3.9 µM in assay [1]; 1.59 µM in [2]; 2.25 µM in assay [3]; 14.4 µM in assay [4]; 1.96 µM in [5]; 16.4 µM in [6]. Besides, the GI50 is 1.65 µM in assay [7], 4.39 µM in [8], 1.88 µM in [9] and 6.17 µM in assay [10]. For the same molecule, the TGI in assay [1] stood at 16.8 µM; in assay [2], 2.98 µM; in assay [3], 4.54 µM; in assay [4] it was 28.8 µM; in assay [5] it was 4.8 µM; in assay [6], 34.8 µM. The TGI in assay [7] was 3.19 µM; in assay [8], 14.6 µM; in [9], 3.46 µM; in [10] it was 20.9 µM.

Take `CCCCCCCCCC(=O)Oc1cccc2onc(C)c12`: the TGI in [1], in assay [2], in assay [3], in assay [4], in assay [5] and in assay [6] was above 100 µM each time. For the same molecule, the TGI in assay [7], in [8], in assay [9] and in [10] was above 100 µM each time.

`COc1ccc(-c2nc3c(c(=O)n2C(C)=O)C(c2ccc(Cl)cc2)c2sc4c(Cl)cccc4c2O3)cc1` (configuration not stated): the GI50 in assay [1] was 0.259 µM; in [2], 0.329 µM; in [3] it was 0.275 µM; in assay [4] it was 0.298 µM; in assay [5], 1.33 µM; in [6], 0.71 µM. The GI50 in [7] was 0.376 µM; in assay [8] it was 0.68 µM; in assay [9] it was 0.504 µM; in assay [10], 0.365 µM. Further, the TGI in assay [1] worked out at 0.84 µM; in [2], 2.39 µM; in [3] it was 1.96 µM; in assay [4], 1.7 µM; in [5], 4.58 µM; in assay [6], 4.74 µM. Also, the TGI in assay [7] was 1.75 µM; in [8], 3.82 µM; in assay [9], 1.84 µM; in assay [10], 1.38 µM.

Regarding `C1=C2CNCC3=Cc4ccc5ccccc5c4OC23Oc2c1ccc1ccccc21`, the GI50 in [1] was 3.36 µM; in assay [2], 3.54 µM; in [3], 4.47 µM; in assay [4], 5.05 µM; in assay [5], 2.86 µM; in assay [6], 5.81 µM. Further, the GI50 in assay [7] was 2.52 µM; in assay [8], 5.64 µM; in [9], 2.43 µM; in assay [10], 3.27 µM. Besides, the TGI in assay [1] amounted to 14.9 µM; in assay [2], 21.5 µM; in assay [3], 16.7 µM; in assay [4] it was 21.7 µM; in assay [5] it was 17.1 µM; in [6], 34.1 µM. The TGI in assay [7] worked out at 10.5 µM; in assay [8], 22.1 µM; in assay [9], 7.48 µM; in assay [10], 13.1 µM.

The values above are taken from PubChem BioAssay (NCI).
